Calls of active or inactive are those of the source. The rule behind the calls is not given here.
Columns and labels:
Mus musculus [1] = test: In-vivo hypoglycemic activity in alloxan-pretreated diabetic BALB/c mouse assessed as blood glucose level after 2 hrs by glucometer analysis (reference value: 239.0 to 444.4 mg/dl); assay type: functional
Mus musculus [2] = test: In-vivo hypoglycemic activity in alloxan-pretreated diabetic BALB/c mouse assessed as blood glucose level after 4 hrs by glucometer analysis (reference value: 239.0 to 444.4 mg/dl); assay type: functional
[3] = target: Aldo-keto reductase family 1 member A1 (Bos taurus, UniProt Q3ZCJ2); test: Inhibition of ALR1 in calf kidney using sodium D-glucoronate as substrate treated with compound for 10 mins prior to substrate addition by UV spectrophotometer analysis
Mus musculus [4] = test: In-vivo hypoglycemic activity in alloxan-pretreated diabetic BALB/c mouse assessed as blood glucose level after 6 hrs by glucometer analysis (reference value: 239.0 to 444.4 mg/dl); assay type: functional
[5] = Retardation factor of the compound using petroleum ether/ethylacetate (6:4) as solvent system by TLC; assay type: physicochemical
Mus musculus [6] = test: In-vivo hypoglycemic activity in alloxan-pretreated diabetic BALB/c mouse assessed as decrease in blood glucose level after 8 hrs by glucometer analysis; assay type: functional
[7] = target: Aldo-keto reductase family 1 member B1 (Bos taurus, UniProt P16116); test: Inhibition of ALR2 in calf lenses using DL-glyceraldehyde as substrate treated with compound for 10 mins prior to substrate addition by UV spectrophotometer analysis; design: species or system Lens of camera-type eye
Mus musculus [8] = test: In-vivo hypoglycemic activity in alloxan-pretreated diabetic BALB/c mouse assessed as blood glucose level after 8 hrs by glucometer analysis (reference value: 239.0 to 444.4 mg/dl); assay type: functional
Bos taurus = species on record: Bos taurus; test: Selectivity index, ratio of IC50 for ALR1 in calf kidney to IC50 for ALR2 in calf lenses; assay type: tissue-based; settings: Lens of camera-type eye
Mus musculus [9] = test: In-vivo hypoglycemic activity in alloxan-pretreated diabetic BALB/c mouse assessed as blood glucose level at 10 mg/kg after 4 hrs by glucometer analysis (reference value: 385.2 +/- 8.94 mg/dl); assay type: functional
Mus musculus [10] = test: In-vivo hypoglycemic activity in alloxan-pretreated diabetic BALB/c mouse assessed as blood glucose level at 10 mg/kg after 2 hrs by glucometer analysis (reference value: 385.2 +/- 8.94 mg/dl); assay type: functional
Mus musculus [11] = test: In-vivo hypoglycemic activity in alloxan-pretreated diabetic BALB/c mouse assessed as blood glucose level at 10 mg/kg after 8 hrs by glucometer analysis (reference value: 385.2 +/- 8.94 mg/dl); assay type: functional
Mus musculus [12] = test: In-vivo hypoglycemic activity in alloxan-pretreated diabetic BALB/c mouse assessed as blood glucose level at 10 mg/kg after 8 hrs by glucometer analysis; assay type: functional
Mus musculus [13] = test: In-vivo hypoglycemic activity in alloxan-pretreated diabetic BALB/c mouse assessed as blood glucose level at 10 mg/kg after 6 hrs by glucometer analysis (reference value: 385.2 +/- 8.94 mg/dl); assay type: functional
[14] = target: Aldo-keto reductase family 1 member B1 (Bos taurus) (UniProt P16116); test: Inhibition of ALR2 in calf lenses using DL-glyceraldehyde as substrate at 0.6 mM treated with compound for 10 mins prior to substrate addition by UV spectrophotometer analysis; settings: Lens of camera-type eye
[15] = test system: aldehyde reductase (ALR1), Bos taurus; test: Inhibition of ALR1 in calf kidney using sodium D-glucoronate as substrate at 0.6 mM treated with compound for 10 mins prior to substrate addition by UV spectrophotometer analysis
[16] = target: Aldo-keto reductase family 1 member B1 (Bos taurus) (UniProt P16116); test: Uncompetitive inhibition of ALR2 in calf lenses using DL-glyceraldehyde as substrate at 20 uM by Lineweaver-Burk plot analysis; settings: Lens of camera-type eye

Aldo-keto reductase family 1 member A1, sequence (Q3ZCJ2 2-325 limits assumed): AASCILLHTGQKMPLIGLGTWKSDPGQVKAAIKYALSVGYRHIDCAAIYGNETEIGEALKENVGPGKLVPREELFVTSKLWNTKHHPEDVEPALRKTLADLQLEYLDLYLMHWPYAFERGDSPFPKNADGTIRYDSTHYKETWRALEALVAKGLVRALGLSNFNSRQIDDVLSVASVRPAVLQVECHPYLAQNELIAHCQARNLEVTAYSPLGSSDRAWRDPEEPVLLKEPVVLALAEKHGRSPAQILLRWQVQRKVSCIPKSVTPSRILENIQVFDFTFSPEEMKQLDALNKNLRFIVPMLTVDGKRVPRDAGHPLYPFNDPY

| SMILES | Activity (Mus musculus [1]) [mg/dL] | Activity (Mus musculus [2]) [mg/dL] | IC50 [3] [µM] | Activity (Mus musculus [4]) [mg/dL] | Rf [5] | inhibition (INH) (Mus musculus [6]) [%] | IC50 [7] [µM] | Activity (Mus musculus [8]) [mg/dL] | Ratio IC50 (Bos taurus) | Activity (Mus musculus [9]) [mg/dL] | Activity (Mus musculus [10]) [mg/dL] | Activity (Mus musculus [11]) [mg/dL] | inhibition in vivo at 10 mg/kg (Mus musculus [12]) [%] | Activity (Mus musculus [13]) [mg/dL] | inhibition [14] [%] | inhibition [15] [%] | inhibition [16] |
| --- | --- | --- | --- | --- | --- | --- | --- | --- | --- | --- | --- | --- | --- | --- | --- | --- | --- |
| O=C1NC(=O)C2(c3ccccc3-c3ccccc32)N1S(=O)(=O)c1ccc([N+](=O)[O-])cc1 | 226.6 | 189.4 | 12.3 | 176.8 | 0.31 | 62.86 | 7.88 | 138.2 |  |  |  |  |  |  |  |  |  |
| COc1ccc(S(=O)(=O)N2C(=O)NC(=O)C23c2ccccc2-c2ccccc23)cc1 | 275.6 | 205.6 | 13.9 | 143.6 | 0.43 | 66.38 | 5.8 | 129 | 2.39 |  |  |  |  |  |  |  |  |
| Cc1ccc(S(=O)(=O)N2C(=O)NC(=O)C23c2ccccc2-c2ccccc23)cc1 | 286.2 | 239.4 | 8.8 | 152.2 | 0.25 | 61.67 | 2.29 | 116.2 | 3.84 |  |  |  |  |  |  |  |  |
| COc1ccc(Cl)cc1C(=O)NCCc1ccc(S(=O)(=O)NC(=O)NC2CCCCC2)cc1 [GLYBURIDE] |  |  |  |  |  |  |  |  |  | 229.3 | 289.1 | 150.5 | 60.9 | 170.7 |  |  |  |
| O=C1c2ccccc2C(=O)c2cc(S(=O)(=O)N3C(=O)NC(=O)C34c3ccccc3-c3ccccc34)ccc21 | 467 | 500 | 20.3 | 522.2 | 0.44 |  | 10.3 | 544.6 | 1.97 |  |  |  |  |  |  |  |  |
| O=C1NC2(C(=O)N1S(=O)(=O)c1ccc3ccccc3c1)c1ccccc1-c1ccccc12 | 277 | 206 |  | 123 | 0.44 | 66.44 |  | 108.6 |  |  |  |  |  |  | 52 | 47.9 |  |
| Cc1ccc(S(=O)(=O)N2C(=O)NC3(C2=O)c2ccccc2-c2ccccc23)cc1 | 229.3 | 180 | 5.15 | 146.6 | 0.27 | 48.28 | 2.84 | 123.6 | 1.81 |  |  |  |  |  |  |  |  |
| O=C1NC2(C(=O)N1S(=O)(=O)c1ccc(Br)cc1)c1ccccc1-c1ccccc12 | 266.5 | 297.2 |  | 339.5 | 0.31 | 73.72 | 5.37 | 63.5 | 9.68 |  |  |  |  |  |  | 52 |  |
| O=C1NC(=O)C2(c3ccccc3-c3ccccc32)N1S(=O)(=O)c1ccc(Br)cc1 | 217 | 168 | 11.5 | 115.8 | 0.33 | 70.55 | 3.86 | 72.8 | 2.97 |  |  |  |  |  |  |  |  |
| O=C1NC2(C(=O)N1S(=O)(=O)c1ccc(Cl)cc1)c1ccccc1-c1ccccc12 | 232 | 160.4 |  | 78.8 | 0.31 | 72.24 | 0.89 | 68 | 53.8 |  |  |  |  |  |  | 47.9 | Active |
| O=C1NC2(C(=O)N1S(=O)(=O)c1ccc([N+](=O)[O-])cc1)c1ccccc1-c1ccccc12 | 226.6 | 190.4 | 3.51 | 175.2 | 0.35 | 55.25 | 1.8 | 121.8 | 1.95 |  |  |  |  |  |  |  |  |
| O=C1NC(=O)C2(c3ccccc3-c3ccccc32)N1S(=O)(=O)c1ccc(Cl)cc1 | 259.8 | 289 | 12.1 | 323.4 | 0.2 |  | 1.72 | 355 | 9.68 |  |  |  |  |  |  |  |  |
| O=C1c2ccccc2C(=O)c2cc(S(=O)(=O)N3C(=O)NC4(C3=O)c3ccccc3-c3ccccc34)ccc21 | 305.8 | 336.4 |  | 400.4 | 0.47 |  | 11.3 | 442.6 | 2.41 |  |  |  |  |  |  | 44.9 |  |
| O=C1NC(=O)C2(c3ccccc3-c3ccccc32)N1S(=O)(=O)c1ccc2ccccc2c1 | 271.2 | 197.3 | 12.5 | 138.5 | 0.41 | 64.13 | 27.3 | 135 | 0.45 |  |  |  |  |  |  |  |  |
| COc1ccc(S(=O)(=O)N2C(=O)NC3(C2=O)c2ccccc2-c2ccccc23)cc1 | 380.2 | 376 | 26.1 | 402.8 | 0.42 |  | 1.02 | 418.8 | 25.6 |  |  |  |  |  |  |  |  |

— ChEMBL document CHEMBL3425483, “Synthesis, characterization, hypoglycemic and aldose reductase inhibition activity of arylsulfonylspiro[fluorene-9,5'-imidazolidine]-2',4'-diones” (Eur J Med Chem, 2015)
